Assay: Pupil diameter after instillation of pilocarpine 1% before vs after TBUT (digital imaging system)
Type: in vivo
Settings: 30 μL; for mean decrease from the baseline in pupil diameter: at 30 minutes, 6 normal eyes
Method: The following study examines the efficacy of pilocarpine, 1% in constricting the pupil and tropicamide, 1% in dilating the pupil when instilled before and after TBUT. Baseline pupil diameters were determined in 12 normal eyes using a digital imaging system (and controlling illumination). Six (6) of the eyes were dosed with 30 μL of pilocarpine and 6 with 30 μL of tropicamide, all before TBUT. Pupil diameter was measured every minute for 30 minutes after instillation. One day later, the same procedures were repeated in the same eyes, except that the subjects were instructed to stare without blinking (≧6 seconds) before the ophthalmic agents were instilled.

CC[C@@H]1C(=O)OC[C@@H]1Cc1cncn1C [Pilocarpine, pilocarpine]
mean decrease from the baseline in pupil diameter (instillation after TBUT): 2.44 units | mean decrease from the baseline in pupil diameter (instillation before TBUT): 1.12 units | greater pupil constriction with instillation after TBUT vs before TBUT (over the 30 minute period): 29.44%
